From patent US20230096601A1, “BORTEZOMIB COMPOSITIONS” (MAIA Pharmaceuticals, Inc., priority 2021, published 2023)
Values after ≈ are worked out from the molar mass of the structure shown.

What was measured:
[1] = Solubility by HPLC, bortezomib premixed with nonaqueous solvent before addition to aqueous component; assay type: physicochemical; details: aqueous with cosolvent or surfactant or cyclodextrin, kinetic from dmso stock; premix in non-aqueous solvent, aqueous system with 25 mg/mL mannitol
Method: This example was carried out to determine the solubility of bortezomib in particular solvents and solvent systems when the bortezomib is first dissolved in (the batch quantity) of a non-aqueous solvent to form a concentrated solution (“premix”), prior to adding the premix to the aqueous component(s). A bortezomib sample (between 10 and 50 mg) was placed in a suitable glass container and added to a defined volume of a nonaqueous solvent system (if used) as defined below in Table 4, to create a concentrated premix. The premix was subsequently added to enough buffered aqueous solvent to make a final volume of 5 mL, as defined below in Table 4.
The resulting formulation was allowed to equilibrate for 24 hours at room temperature, protected from light. Solubility was determined by filtration through a 0.45 micron filter, and assay of the filtrate for bortezomib content using an HPLC procedure, and a bortezomib standard. One mL aliquots of the filtrate (saturated solution) were subjected to three freeze-thaw cycles of 24 hours at −20° C. and 24 hours at 25° C. each, with visual examination after each cycle. Absence of precipitation after the three cycles was used as an index of physical stability of the formulation upon long-term storage.

[2] = Accelerated / room temperature stability testing at 25° C./60% RH, HPLC assay and impurities (percent of nominal bortezomib concentration); assay type: physicochemical
Method: The compositions described herein are storage stable aqueous liquid ready-to-use compositions. The degradation of the active ingredient, as well as the formation of various impurities is controlled by the composition to a minimal level. Stability testing was performed at the long-term stability condition (2-8° C.) as well as the accelerated stability condition (25±2° C./60±5% RH) for refrigerated products. At each time point, the bortezomib content (assay) and the impurity profile was determined using an HPLC procedure, and a bortezomib reference standard. The HPLC method utilizes a reverse phase column with an aqueous formic acid/acetonitrile and aqueous formic acid/methanol mobile phase gradient and UV/PDA detector at a wavelength of about 270 nm.
The effect of pH on bortezomib formulations using a low concentration of DMSO in water (4.5% v/v DMSO for the 2.5 mg/mL strength and 1% v/v DMSO for the 1 mg/mL strength) was then assessed. In each case, the bortezomib was first fully dissolved in the batch quantity of DMSO to form a concentrated premix solution, which was then added to water, and the pH adjusted with sodium hydroxide and/or hydrochloric acid to pH ranging from 4 to 8.5. […] Because oxidative degradation is a significant degradation pathway for bortezomib, filled vials were overlayed with nitrogen. These batches were placed on stability at accelerated (25° C.) and long-term storage conditions (2-8° C.). […] Although the 2.5 mg/mL formulations were not physically stable at 25° C., chemical stability, based on analysis after 2 months at 25° C., stability was poor at pH 4 and pH 8.5 for both strengths, with good stability being observed at pH 5.5 for the 2.5 mg/mL strength and pH 5.5 and 7 for the 1 mg/mL strength.
The preparation of the concentrated bortezomib premix is performed. The batch quantity of bortezomib is added to a suitable glass container. The batch quantity of the non-aqueous solvent is then added to the bortezomib, and mixed until the bortezomib is completely dissolved. The initial aqueous component is separately prepared by dissolving the other excipients such as buffer, optionally a solubilizer and/or stabilizer, or a tonicity adjuster, in water for injection, which optionally has been degassed by sparging nitrogen through it and adjusting to the desired pH using appropriate pH adjusting agent, if needed. The aqueous component is typically prepared at about double the corresponding concentration(s) in the final formulation; this was typically accomplished by dissolving the excipients in approximately half the batch volume of water. The bortezomib premix is then added to the (concentrated) aqueous component, and mixed. Water is then added to make up to about 80-90% of the batch volume and a final pH adjustment is performed to the target pH using appropriate pH adjusting agent, if needed. After final pH adjustment, the batch is made up to the target batch volume. The batch is then sterile filtered using a 0.2 micron filter, filled into (2-mL, or 3-mL, or 5-mL) USP Type I, optionally amber, glass vials, stoppered with (13-mm or 20-mm) fluoropolymer-coated chlorobutyl rubber stoppers, and sealed with (13-mm or 20-mm) aluminum caps. The fill volume used is typically 3.5 mL for the 1 mg/mL formulations or 1.4 mL for the 2.5 mg/mL formulations (to contain 3.5 mg bortezomib per vial). Because bortezomib is known to be oxidation and light sensitive, compounding and filling is typically carried out in a glove box equilibrated with nitrogen at various residual oxygen levels (typically less than 5%). Light exposure is minimized.
The stability testing under accelerated conditions (25° C. and 60% relative humidity for at least 6 months) of these formulations is presented in Table 6.

[3] = Equilibrium solubility by HPLC, bortezomib added directly to solvent system; assay type: physicochemical; details: buffered aqueous solutions, aqueous buffer, thermodynamic from solid; pH range of 4 to 7
Method: Because pH appeared to influence chemical stability, sodium acetate or sodium phosphate were included in these matrixes as buffers, and the effect of pH on solubility was also assessed.
The components were mixed (by shaking the glass container), and the mixture was observed. […] The suspension was allowed to equilibrate for 24 hours at room temperature while being protected from light. After the incubation, the solution phase was removed from the container into a clean vial by filtration through a 0.45 micron syringe filter, and the filtrate was assayed for bortezomib content using an HPLC procedure, and a bortezomib standard.

[4] = Formulation trials with low concentrations of benzyl alcohol / DMSO in water: visual dissolution and physical stability; assay type: physicochemical; details: benzyl alcohol (2% v/v), DMSO (5% v/v) or combination added to bortezomib, then water; mixing >3 hours
Method: Initial formulation experiments with low concentrations of various non-aqueous solvents were conducted targeting a bortezomib concentration of 2.5 mg/mL. Attempts to solubilize bortezomib were conducted using low concentrations of benzyl alcohol (2% v/v), or dimethyl sulfoxide (5% v/v), or a combination of these solvents. […] For these formulations, the non-aqueous solvent was added to bortezomib to dissolve it, followed by addition of water to the bortezomib-solvent mixture.
Various concentrations of DMSO were explored as the non-aqueous component of the formulation (2% v/v to 5% v/v in water). Bortezomib was first completely dissolved in the batch volume of DMSO to form a concentrated “premix” solution prior to making up the batch to the target concentration (2.5 mg/mL) with water. This was done to facilitate the subsequent dissolution of bortezomib in the aqueous component.

[5] = cited from earlier work
physchem = details: thermodynamic from solid
Method: The solubility of bortezomib in select non-aqueous solvents was determined to understand if any of these solvents may be useful (as a co-solvent with water) at low concentrations in the final formulation.
Approximately 25 mg of bortezomib was added to a suitable container. An initial volume of 0.5 mL of the non-aqueous solvent was added and the mixture stirred for 5 minutes. The appearance of the solution was recorded. […] If the bortezomib was not fully dissolved, additional volume of solvents were added in 0.25 mL increments with mixing for 5 minutes after each addition, and recording the appearance of the solution, until the bortezomib was fully dissolved, up to a total volume of 10 mL.

solubility at 24 h [1]: > 4000 µg/mL
Total Impurities after 2 months at 25° C. (%) ([2]; 1 mg/mL bortezomib, 1% (v/v) DMSO in water, pH 4): 7.83%
Total Impurities after 2 months at 25° C. (%) ([2]; 1 mg/mL bortezomib, 1% (v/v) DMSO in water, pH 5.5): 0.52%
Total Impurities after 2 months at 25° C. (%) ([2]; 1 mg/mL bortezomib, 1% (v/v) DMSO in water, pH 7): 1.18%
Total Impurities after 2 months at 25° C. (%) ([2]; 1 mg/mL bortezomib, 1% (v/v) DMSO in water, pH 8.5): 12.48%
Total Impurities after 2 months at 25° C. (%) ([2]; 2.5 mg/mL bortezomib, […] (v/v) DMSO in water, pH 4): 13.71%
Total Impurities after 2 months at 25° C. (%) ([2]; 2.5 mg/mL bortezomib, […] (v/v) DMSO in water, pH 5.5): 1.07%
Total Impurities after 2 months at 25° C. (%) ([2]; 2.5 mg/mL bortezomib, […] (v/v) DMSO in water, pH 7): 5.91%
Total Impurities after 2 months at 25° C. (%) ([2]; 2.5 mg/mL bortezomib, […] (v/v) DMSO in water, pH 8.5): 31.59%
solubility at 24 h [3]: < 500 µg/mL
dissolution at target 2.5 mg/mL [4]: precipitated after addition of water
solubility at 5 min (physchem; N-methyl pyrrolidone (NMP), organic solvent or mixture): > 25000 µg/mL
solubility at 5 min (physchem; benzyl alcohol, organic solvent or mixture): > 50000 µg/mL
solubility at 5 min (physchem; dimethyl sulfoxide (DMSO), organic solvent or mixture): > 50000 µg/mL
solubility at 5 min (physchem; ethanol, organic solvent or mixture): ~4500 µg/mL (≈ 11.7 mM)
solubility at 5 min (physchem; glycerol, organic solvent or mixture): < 2500 µg/mL
solubility at 5 min (physchem; polyethylene glycol 400, organic solvent or mixture): < 2500 µg/mL
solubility at 5 min (physchem; propylene glycol, organic solvent or mixture): ~3600 µg/mL (≈ 9.37 mM)
Compound: CC(C)C[C@H](NC(=O)[C@H](Cc1ccccc1)NC(=O)c1cnccn1)B(O)O [Bortezomib, [(1R)-3-methyl-1-[[(2S)-1-oxo-3-phenyl-2-[(pyrazinylcarbonyl)amino]propyl]amino]butyl] boronic acid]
solubility of bortezomib in water or buffered aqueous solutions reported by the suppliers [5]: < 100 µg/mL
